Reference: article PMC5242521 (PLoS ONE, 2017)
“And” between values parts separate entries of the source, which are not always exact repeats. Equal entries are not always repeated. Values belong to the compound of their own block, whether it stands above or below them.

What was measured:
[1] = molecular target: T1, OCT1 (Homo sapiens, UniProt O15245); assay: OCT1 activity: DAPI accumulation in HEK-OCT1 cells; settings: for effect on OCT1 activity: pyrethroid 100 μM, DAPI; for inhibition at 100 μM: human
T1 sequence (O15245 1-554): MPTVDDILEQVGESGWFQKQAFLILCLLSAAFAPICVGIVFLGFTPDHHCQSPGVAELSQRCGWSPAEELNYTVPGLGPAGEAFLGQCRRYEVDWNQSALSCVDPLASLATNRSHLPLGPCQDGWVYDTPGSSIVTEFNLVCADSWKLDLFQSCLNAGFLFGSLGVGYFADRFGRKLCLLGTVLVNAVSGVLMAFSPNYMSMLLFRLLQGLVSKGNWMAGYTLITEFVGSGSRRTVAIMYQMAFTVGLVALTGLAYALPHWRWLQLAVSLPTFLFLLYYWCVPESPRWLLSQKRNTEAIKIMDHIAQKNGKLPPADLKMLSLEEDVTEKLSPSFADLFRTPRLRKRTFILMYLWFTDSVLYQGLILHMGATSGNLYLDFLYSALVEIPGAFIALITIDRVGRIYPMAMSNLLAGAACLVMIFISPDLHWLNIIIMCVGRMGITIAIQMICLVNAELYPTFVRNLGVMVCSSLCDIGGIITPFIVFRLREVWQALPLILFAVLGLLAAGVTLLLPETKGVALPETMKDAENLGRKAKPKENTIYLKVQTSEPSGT
Description: (§1) The effects of pyrethroids on activity of ABC and SLC transporters were determined through measuring cellular accumulation or retention of fluorescent or radiolabeled reference substrates for transporters, in the presence or absence of reference inhibitors, as previously described. The nature of cells and reference substrates and inhibitors used for transport assays are summarized in S3 Table.
(§2) The nature of substrates and reference inhibitors and the incubation times with substrates, that varied according to the transporter, were selected in agreement with previous studies and are indicated in S3 Table. The total incubation volume with substrates was 200 μL/well. […] An aliquot of cell lysate (5 μL) was then taken for determining cellular protein content by the Bradford method.
(§3) Intracellular concentrations of reference substrates were initially expressed as fluorescence arbitrary units (for fluorescent dye substrates) or as moles (for radiolabeled substrates) and normalized to cellular protein content, determined by the Bradford method. They were finally used for calculating percentage of transporter activity, according to the following equations [41, 45]: %ABCtransporter activity=([Substrateref inh]-[Substratepyrethroid])×100/([Substrateref inh]-[Substratecontrol]) (1) %SLC transporter activity=([Substratepyrethroid]-[Substratref inh])×100/([Substratecontrol]-[Substrateref inh]) (2) with [Substratepyrethroid] = cellular concentration of reference substrate in the presence of pyrethroid, [Substrateref inh] = cellular concentration of reference substrate in the presence of reference inhibitor and [Substratecontrol] = cellular concentration of reference substrate in control cells not exposed to pyrethroid or reference inhibitor.
(§4) The initial tested concentration of pyrethroids was 100 μM. […] Such concentrations were calculated using GraphPad Prism software (GraphPad Software, La Jolla, CA), through nonlinear regression based on the four parameter logistic function using the following equations: […]

[2] = design: method as in PMID 12708229; settings: human subjects environmentally exposed; ref [70]; cited from earlier work
[3] = molecular target: T1, OCT1; assay: Trans-stimulation assay of TEA uptake in OCT1-transfected HEK293 cells; type: cell-based; settings: pre-loading 60 min with 100 μM pyrethroid or 2 mM unlabeled TEA; HEK-OCT1 cells
Description: Trans-stimulation assays were performed as previously described. Briefly, OCT1-transfected HEK293 cells were first preloaded with 2 mM unlabeled TEA or 100 μM pyrethroid for 60 min at 37°c in the transport assay medium described above. After washing twice with PBS, cells were next re-incubated in transport assay medium containing 29 μM [1-^14C]-TEA for 5 min at 37°C. After washing twice with PBS, cells were lysed in distilled water and intracellular accumulation of [1-^14C]-TEA was then determined by scintillation counting.
Intracellular accumulation of TEA was then determined by scintillation counting. […] After washing, cells were next re-incubated with 29 μM [1-^14C]-TEA for 5 min at 37°C. Intracellular accumulation of [1-^14C]-TEA was then determined by scintillation counting.

[4] = molecular target: T2, OCT2 (Homo sapiens, UniProt O15244); assay: OCT2 activity: rhodamine 123 accumulation in HEK-OCT2 cells; settings: human
T2 sequence (O15244 1-555): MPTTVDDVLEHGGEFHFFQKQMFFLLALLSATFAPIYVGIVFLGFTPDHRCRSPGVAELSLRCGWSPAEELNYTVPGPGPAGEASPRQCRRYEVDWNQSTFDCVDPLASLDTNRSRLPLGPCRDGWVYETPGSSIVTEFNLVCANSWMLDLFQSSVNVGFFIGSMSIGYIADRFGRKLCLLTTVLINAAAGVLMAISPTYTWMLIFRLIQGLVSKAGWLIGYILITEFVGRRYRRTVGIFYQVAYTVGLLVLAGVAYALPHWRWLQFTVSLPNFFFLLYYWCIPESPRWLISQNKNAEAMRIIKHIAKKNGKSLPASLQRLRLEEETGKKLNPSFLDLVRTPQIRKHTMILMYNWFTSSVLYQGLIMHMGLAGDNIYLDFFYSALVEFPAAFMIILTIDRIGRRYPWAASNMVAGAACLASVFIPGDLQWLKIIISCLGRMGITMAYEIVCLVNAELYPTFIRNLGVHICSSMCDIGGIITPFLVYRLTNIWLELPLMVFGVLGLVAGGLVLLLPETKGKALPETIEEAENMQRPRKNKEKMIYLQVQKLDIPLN
Description: as §1, §2, §3, §4

[5] = system: P-gp; settings: ref [26], [27]; cited from earlier work
[6] = molecular target: P-gp (Homo sapiens, UniProt P08183); assay: P-gp activity: rhodamine 123 accumulation in MCF7R cells; settings: pyrethroid 100 μM
Description: as §1
(§5) For accumulation assays (performed for all transporters, excepted BCRP), transporter-expressing cells usually cultured in 48-well plates were first incubated at 37°C with reference substrates in the absence (control) or presence of pyrethroids or reference inhibitors, in a well-defined transport assay medium, consisting of 136 mM NaCl, 5.3 mM KCl, 1.1mM KH2PO4, 0.8 mM MgSO4, 1.8 mM CaCl2, 10 mM HEPES, 11 mM D-glucose and adjusted to pH = 7.4 (excepted for MATE transporter assays, for which pH was set to 8.4). The nature of substrates and reference inhibitors and the incubation times with substrates, that varied according to the transporter, were selected in agreement with previous studies and are indicated in S3 Table. The total incubation volume with substrates was 200 μL/well. After washing twice in phosphate-buffered saline (PBS) (200 μL/well/washing), cells were lysed in distilled water (155 μL/well). An aliquot of cell lysate (5 μL) was then taken for determining cellular protein content by the Bradford method. The rest of lysate (150 μL/well) was used for measuring intracellular accumulation of reference substrates by scintillation counting or spectrofluorimetry using a SpectraMax Gemini SX spectrofluorometer (Molecular Devices, Sunnyvale, CA, USA) (excitation and emission wavelengths were 485 and 535 nm, respectively, for rhodamine 123 and fluorescein, and 355 and 460 nm, respectively, for DAPI).
as §3, §4

[7] = molecular target: T3, OAT1 (Homo sapiens, UniProt Q4U2R8); assay: OAT1 activity: fluorescein accumulation in HEK-OAT1 cells; type: cell-based; settings: human, pH 7.4; pyrethroid 100 μM; HEK-OAT1 cells, fluorescein
T3 construct: host or cells: HEK293
T3 sequence (Q4U2R8 1-563): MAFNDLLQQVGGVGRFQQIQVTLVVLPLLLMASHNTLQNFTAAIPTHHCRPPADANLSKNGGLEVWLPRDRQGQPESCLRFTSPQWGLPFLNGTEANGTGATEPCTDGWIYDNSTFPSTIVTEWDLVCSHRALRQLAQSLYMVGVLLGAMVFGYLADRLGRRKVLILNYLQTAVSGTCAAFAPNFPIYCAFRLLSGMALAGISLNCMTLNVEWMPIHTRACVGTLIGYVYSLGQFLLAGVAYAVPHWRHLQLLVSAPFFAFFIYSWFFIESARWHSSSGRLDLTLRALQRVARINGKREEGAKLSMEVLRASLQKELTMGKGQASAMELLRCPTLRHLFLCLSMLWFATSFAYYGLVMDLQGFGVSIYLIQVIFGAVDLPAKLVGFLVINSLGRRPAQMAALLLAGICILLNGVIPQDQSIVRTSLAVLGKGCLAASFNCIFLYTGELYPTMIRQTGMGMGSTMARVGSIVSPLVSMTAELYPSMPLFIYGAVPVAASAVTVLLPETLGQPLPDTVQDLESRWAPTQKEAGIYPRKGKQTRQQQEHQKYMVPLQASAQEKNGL
Description: The effects of pyrethroids on activity of ABC and SLC transporters were determined through measuring cellular accumulation or retention of fluorescent or radiolabeled reference substrates for transporters, in the presence or absence of reference inhibitors, as previously described [41].
The total incubation volume with substrates was 200 μL/well. […] An aliquot of cell lysate (5 μL) was then taken for determining cellular protein content by the Bradford method [44].
Intracellular concentrations of reference substrates were initially expressed as fluorescence arbitrary units (for fluorescent dye substrates) or as moles (for radiolabeled substrates) and normalized to cellular protein content, determined by the Bradford method [44]. They were finally used for calculating percentage of transporter activity, according to the following equations [41, 45]: %ABCtransporter activity=([Substrateref inh]-[Substratepyrethroid])×100/([Substrateref inh]-[Substratecontrol]) (1) %SLC transporter activity=([Substratepyrethroid]-[Substratref inh])×100/([Substratecontrol]-[Substrateref inh]) (2) with [Substratepyrethroid] = cellular concentration of reference substrate in the presence of pyrethroid, [Substrateref inh] = cellular concentration of reference substrate in the presence of reference inhibitor and [Substratecontrol] = cellular concentration of reference substrate in control cells not exposed to pyrethroid or reference inhibitor.

[8] = molecular target: T4, OAT3 (Homo sapiens, UniProt Q8TCC7); assay: OAT3 activity: fluorescein accumulation in HEK-OAT3 cells; settings: human, pH 7.4
T4 sequence (Q8TCC7 1-542): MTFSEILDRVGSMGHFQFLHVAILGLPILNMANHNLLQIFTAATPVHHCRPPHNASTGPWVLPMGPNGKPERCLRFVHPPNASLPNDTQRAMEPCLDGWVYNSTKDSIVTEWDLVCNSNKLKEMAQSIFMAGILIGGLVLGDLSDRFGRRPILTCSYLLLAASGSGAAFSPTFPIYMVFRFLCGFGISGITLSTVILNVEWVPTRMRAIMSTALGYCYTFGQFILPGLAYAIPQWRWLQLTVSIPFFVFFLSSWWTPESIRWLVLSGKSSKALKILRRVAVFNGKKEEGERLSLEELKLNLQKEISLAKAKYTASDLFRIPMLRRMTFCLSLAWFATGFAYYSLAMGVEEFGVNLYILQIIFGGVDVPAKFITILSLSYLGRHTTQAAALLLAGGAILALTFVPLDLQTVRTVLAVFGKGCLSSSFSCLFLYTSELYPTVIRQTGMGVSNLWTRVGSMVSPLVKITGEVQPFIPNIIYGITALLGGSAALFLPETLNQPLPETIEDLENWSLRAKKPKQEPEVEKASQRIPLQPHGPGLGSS
Description: as §1, §5, §3, §4

[9] = HEK-OCT2 cells, pH 7.4, probe rhodamine 123

Sequence of P-gp (Homo sapiens, UniProt P08183) (P08183 whole entry): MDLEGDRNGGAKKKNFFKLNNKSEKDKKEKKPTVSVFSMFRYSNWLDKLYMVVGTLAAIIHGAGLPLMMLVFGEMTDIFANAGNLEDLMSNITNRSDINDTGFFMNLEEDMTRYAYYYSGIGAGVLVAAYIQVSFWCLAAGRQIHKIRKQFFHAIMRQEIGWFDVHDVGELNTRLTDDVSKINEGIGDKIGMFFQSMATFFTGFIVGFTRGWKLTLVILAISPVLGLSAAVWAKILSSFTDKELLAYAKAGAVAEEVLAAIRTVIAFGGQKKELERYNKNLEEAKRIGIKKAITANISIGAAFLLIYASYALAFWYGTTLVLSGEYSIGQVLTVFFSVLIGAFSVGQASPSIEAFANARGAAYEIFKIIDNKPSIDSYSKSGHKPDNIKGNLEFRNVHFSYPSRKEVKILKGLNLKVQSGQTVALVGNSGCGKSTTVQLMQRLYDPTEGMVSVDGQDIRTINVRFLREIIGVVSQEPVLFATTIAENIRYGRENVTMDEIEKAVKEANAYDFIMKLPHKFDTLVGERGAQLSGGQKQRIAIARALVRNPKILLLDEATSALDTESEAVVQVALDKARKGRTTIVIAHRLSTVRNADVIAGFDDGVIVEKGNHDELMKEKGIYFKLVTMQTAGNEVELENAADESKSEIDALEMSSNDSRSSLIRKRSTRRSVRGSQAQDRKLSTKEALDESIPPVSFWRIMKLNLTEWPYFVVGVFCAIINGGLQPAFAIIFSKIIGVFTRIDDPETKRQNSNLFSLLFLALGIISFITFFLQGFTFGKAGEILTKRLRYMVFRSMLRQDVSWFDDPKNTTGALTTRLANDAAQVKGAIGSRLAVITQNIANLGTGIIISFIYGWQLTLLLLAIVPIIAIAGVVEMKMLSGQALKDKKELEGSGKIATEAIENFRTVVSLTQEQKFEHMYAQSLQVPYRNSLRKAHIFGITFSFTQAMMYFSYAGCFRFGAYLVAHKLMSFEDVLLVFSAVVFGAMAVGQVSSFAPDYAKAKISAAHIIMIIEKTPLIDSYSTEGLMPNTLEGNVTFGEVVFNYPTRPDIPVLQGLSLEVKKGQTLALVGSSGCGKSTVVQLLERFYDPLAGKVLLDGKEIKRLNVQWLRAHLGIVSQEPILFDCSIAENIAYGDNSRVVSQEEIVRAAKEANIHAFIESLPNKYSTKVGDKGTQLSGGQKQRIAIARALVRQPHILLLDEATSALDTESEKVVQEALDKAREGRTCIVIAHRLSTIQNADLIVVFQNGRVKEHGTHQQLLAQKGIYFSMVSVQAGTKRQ

SMILES: Cc1c(COC(=O)[C@@H]2[C@H](/C=C(\Cl)C(F)(F)F)C2(C)C)cccc1-c1ccccc1 (racemic) [bifenthrin]
effect on OCT1 activity [1]: failed to significantly alter

SMILES: CC1(C)C(C=C(Cl)Cl)C1C(=O)OC(C#N)c1ccc(F)c(Oc2ccccc2)c1 (centres unmarked) [cyfluthrin]
blood concentration [2]: < 5 μg/L and < 12.8 nM

SMILES: CC[N+](CC)(CC)CC [TEA, tetra-ethylammonium bromide, reference compound]
effect of pre-loading on radiolabeled TEA uptake (trans-stimulation assay) [3]: trans-stimulation

SMILES: Cc1c(F)c(F)c(COC(=O)[C@@H]2[C@H](/C=C(\Cl)C(F)(F)F)C2(C)C)c(F)c1F (racemic) [tefluthrin]
inhibition at 100 μM ([4]; pH 7.4): ~25%
inhibition at 100 μM ([1]; pH 7.4): 30.1 to 48.8%

SMILES: CC(C)[C@H](Nc1ccc(C(F)(F)F)cc1Cl)C(=O)OC(C#N)c1cccc(Oc2ccccc2)c1 (some centres unmarked) [fluvalinate]
effect on P-gp activity or ATPase activity [5]: inhibit
effect on P-gp activity [6]: did not alter

SMILES: CC1(C)[C@H](C(=O)OCc2cccc(Oc3ccccc3)c2)[C@@H]1C=C(Cl)Cl [cis-permethrin]
effect on OCT1 activity [1]: failed to significantly alter

inhibition at 100 μM [4, 9]: ~25%
inhibition at 100 μM ([1]; HEK-OCT1 cells, pH 7.4, probe DAPI): 30.1%
SMILES: CC1(C)[C@H](C=C(Cl)Cl)[C@H]1C(=O)O[C@@H](C#N)c1cccc(Oc2ccccc2)c1 [β-cypermethrin]

SMILES: CC1(C)C(C(=O)OC(C#N)c2cccc(Oc3ccccc3)c2)C1(C)C (centres unmarked) [fenpropathrin]
inhibition at 100 μM ([1]; pH 7.4): 30.1 to 48.8%

SMILES: CC1(C)C(C=C(Cl)Cl)C1C(=O)OC(C#N)c1cccc(Oc2ccccc2)c1 (centres unmarked) [cypermethrin]
blood concentration [2]: < 5 μg/L and < 12.8 nM
effect on P-gp activity [6]: did not alter

SMILES: CC1(C)[C@H](C=C(Cl)Cl)[C@H]1C(=O)OCc1cccc(Oc2ccccc2)c1 [trans-permethrin]
inhibition at 100 μM [4, 9]: ~25%
inhibition at 100 μM ([1]; pH 7.4): 30.1 to 48.8%

SMILES: CC1(C)[C@H](C(=O)O[C@H](C#N)c2cccc(Oc3ccccc3)c2)[C@@H]1/C=C(\Cl)C(F)(F)F (racemic) [λ-cyhalothrin]
inhibition at 100 μM ([1]; pH 7.4): 30.1 to 48.8%

SMILES: CC(C)[C@@H](Nc1ccc(C(F)(F)F)cc1Cl)C(=O)OC(C#N)c1cccc(Oc2ccccc2)c1 (some centres unmarked) [τ-fluvalinate]
inhibition at 100 μM [7]: 42.8%
inhibition at 100 μM [8]: 15.6%
inhibition at 100 μM ([4]; pH 7.4): ~25%
effect on OCT1 activity [1]: failed to significantly alter
